# Assay results published in publication doi:10.1101/2020.03.04.976639v2 (biorxiv, 2020).
# What was measured:
# [1] = target: T1, PaThiL (P. aeruginosa thiamine monophosphate kinase, ThiL) (Pseudomonas aeruginosa, UniProt Q9HWX7); experiment: luminescent kinase assay; type: biochemical
# T1 sequence (Q9HWX7 1-322): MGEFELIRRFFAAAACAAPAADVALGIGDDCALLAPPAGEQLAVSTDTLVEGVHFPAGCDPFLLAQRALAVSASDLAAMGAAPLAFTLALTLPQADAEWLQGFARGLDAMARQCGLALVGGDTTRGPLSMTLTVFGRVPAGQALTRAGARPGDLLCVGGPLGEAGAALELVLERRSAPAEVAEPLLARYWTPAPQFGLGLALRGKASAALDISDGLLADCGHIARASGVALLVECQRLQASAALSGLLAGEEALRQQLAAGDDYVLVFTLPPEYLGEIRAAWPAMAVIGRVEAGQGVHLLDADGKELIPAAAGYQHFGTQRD
# [2] = target: T1, PaThiL (P. aeruginosa thiamine monophosphate kinase, ThiL); experiment: luminescent kinase assay; type: biochemical; details: random Bi-Bi fit; TMP 0.78-50 µM; 50 mM Tris-HCl pH 8.0, 5 mM MgCl2, 350 mM KCl
Ki [1] [µM],Km [2] [µM],Structure (SMILES)
114 ± 27,,O=C(O)Cc1c[nH]c2ccc(O)cc12 [5-hydroxyindolacetic acid]
,111 ± 8,Nc1ncnc2c1ncn2[C@@H]1O[C@H](COP(=O)(O)OP(=O)(O)OP(=O)(O)O)[C@@H](O)[C@H]1O [ATP]
